Test results from USRE46907E1, “Suppression of cancer growth and metastasis using nordihydroguaiaretic acid derivatives with metabolic modulators” (THE JOHNS HOPKINS UNIVERSITY, priority 2008, dated 2018).

Columns and labels:
[1] = system: PDK-1/Akt pathway-related proteins; assay: Western blotting of PDK-1/Akt pathway-related proteins in 67NR cells; type: cell-based, mouse; conditions: 5 hrs after treatment
Procedure: Western blotting: After cells had been grown in […] flasks and treated with reagents, the cells were washed with PBS (−) three times and suspended in RIP A buffer (150 mM NaCl, 50 mM Tris-HCl (pH 8,0), 0.1% SDS, 1% NP40, and 0.5% deoxycholate) supplemented with protease inhibitor cocktail (Calbiochem, San Diego, Calif.). The sample volumes were adjusted by the total protein amount. Protein assay was performed by Bio-Rad Protein Assay (Bio-Rad Laboratories, Inc. Hercules, Calif.). The samples were resolved by the standard SDS-polyacrylamide gel electrophoresis and transferred to nitrocellulose membrane (Amersham Biosciences, Bjorkgatan, Sweden). The membranes were blocked with skim milk, and incubated with primary antibodies at 4° C. overnight and then with secondary antibody conjugated with horse radish peroxidase at room temperature for 2 hrs. The signals were detected by western blot chemiluminescence reagent plus (New England Nuclear Life Science Products, Boston, Mass.).

PKCδ = assay: Immunocytochemistry of PKCδ cellular localization in LNCaP cells; type: cell-based, human; conditions: 5 hrs
Procedure: Immunocytocheimstry: Cells were cultured on glass cover slips coated with poly-L-ornithine (Sigma, Saint Louis, Mo.). At 5 hrs after treatment with drugs, the cells were fixed with 10% formaldehyde in diluted in PBS (−) and washed with PBS (−) three times. After permeabilized by 0.2% Tryton X-100 and 1% goat serum diluted in PBS (−), the cells were blocked by PBS (−) containing 5% goat serum. The cells were then incubated with primary antibodies diluted in PBS (−) containing 0.5% bovine serum albumin (BSA), and with secondary antibodies, which is either anti-IgG conjugated with fluorescein (Vector Laboratories. Burlingame, Calif.), diluted in PBS (−) containing 0.5% BSA. The cells were observed through Zeiss fluorescent microscope (Carl Zeiss, Thornwood, N.Y.).

[2] = system: LNCaP human prostate cancer cells; type: cell-based; conditions: 28 hrs, M4N 80 μM, Ro 5 μM, Ly 20 μM
Procedure: Cell Culture Either cell line 4T1 or 67NR was a gift from Dr. Miller (20). The cells were cultured in RPMI1640 medium supplemented with glucose (14 mM), pyruvate (1 mM), penicillin (100 units/ml), streptomycin (100 μg/ml), and fetal bovine serum (10%), buffered with 25 mM HEPES (pH 7.4). LNCaP human prostate cancer cell line was purchased from American Type Culture Collection (Manassas, Va.). The cell line was cultured in RPMI1640 medium supplemented with glucose (14 mM), pyruvate (1 mM), penicillin (100 units/ml), streptomycin (100 μg/ml), and fetal bovine serum (10%). Drugs were dissolved in dimethyl sulfoxide (DMSO) at a suitable concentration so that the final concentration of DMSO in the medium was less than 0.1%.
Apoptosis assay: Simple TLTNEL assay was conducted by using TUNEL apoptosis detection kit (Upstate, Temecula, Calif.) with some modification. For the evaluation of the effect of PKCδ wild type and dominant negative vectors on TUNEL-positive cell death, we first transfected 4T1 or 67NR cells with these vectors by effectene (Qiagen, Valencia, Calif.). Wild type PKCδ vector is constructed from wild type PKCδ gene and pEGFP (Promega, Madison, Wis.). Dominant negative PKCδ vector is constructed from PKCδ gene mutated at a 376th amino acid residue (threonine) and pEGFP (Promega, Madison, Wis.) This threonine residue is located in ATP-binding domain of protein kinase Cδ, and therefore essential for any kinase reaction of the protein so that this mutant protein supposedly function as dominant negative. As a control we used pEGFP-N3 vector was used. These vectors contain green fluorescent protein (GFP) gene to be used as a transfection marker. The vectors are kind gifts from Dr. Yuspa (National Institutes of Health, Bethesda, Md.) (88). Twenty four hours after transfection, the cells were treated with M4N, Rottlerin, or Ly294002. Then 24 hrs after this treatment with these reagents, the cells were fixed with 10% formaldehyde in phosphate buffered saline without calcium and magnesium (PBS (−)). The cells were then incubated with rabbit anti-GFP antibody (MBL International, Woburn, Mass.) followed by treatment with anti-rabbit IgG antibody conjugated with fluorescein (Promega, Madison, Wis.). TUNEL staining was conducted by using TUNEL apoptosis detection kit (Upstate, Temecula, Calif.) except for using Streptavidin-Alexa Fluor 568 (Molecular Probes, Eugene, Oreg.) instead of Avidine-Rhodamine contained in the kit. Cell death was evaluated by dividing the number of TUNEL-positive cells among the cells positive with anti-GFP staining by the number of these GFP-positive cells.

## COc1ccc(C[C@@H](C)[C@@H](C)Cc2ccc(OC)c(OC)c2)cc1OC [M4N, tetra-O-methyl nordihydroguaiaretic acid]
[1]
  total Akt expression: not changed much
[1]; M4N 80 μM
  expression of phosphorylated PDK (Ser241), Akt (Ser473), PRAS40 (Thr246), Raf (Ser259), MEK (Ser217/221): significant reduction
PKCδ
  expression and nuclear level of total PKCδ: Neither M4N, Ro, nor Ly treatment caused any remarkable change
  nuclear expression of phosphor-PKCδ (Thr507): augmented
[2]
  TUNEL-positive cell death: very small
